Results published in patent US20250351832A1, “PHYTOCHEMICALS AS BIOPESTICIDES AND BIOSTIMULANTS” (KAY BEE BIO ORGANICS PVT. LTD., priority 2024, published 2025).
Read-outs that look alike come from different tables or passages of the source.

Key:
Alternaria alternata [1] = assay: In vitro poisoned food technique against fungus (Ex. 20); type: cell-based; conditions: poisoned food technique, PDA medium, dose 1 ml/gm/lit., after seven days
Alternaria alternata [2] = assay: Alternaria leaf spot/blight on inoculated tomato plants (Ex. 28); type: in vivo; conditions: tomato plants, Alternaria alternata; after 7 days; dose 1 ml/gm/lit
tomato seedlings = assay: Response of tomato plants, greenhouse growth (Ex. 30); type: in vivo; conditions: tomato seedlings, dose 1 ml/gm/lit
chili seedlings = assay: Response of chili plants, greenhouse growth (Ex. 31); type: in vivo; conditions: chili seedlings, dose 1 ml/gm/lit
Aphid [3] = conditions: Dose 1 ml/gm/lit.
Mite [4] = conditions: Dose 1 ml/gm/lit.
Mealy Bug [5] = conditions: Mealy Bug on cotton leaves, dose 1 ml/gm/lit., 48 Hrs.
Helicoverpa armigera [6] = conditions: Helicoverpa armigera on okra fruits, dose 1 ml/gm/lit., 72 Hrs.
Spodoptera litura [7] = conditions: Spodoptera litura on castor leaves; dose 1 ml/gm/lit.; 10 insects/treatment; 72 hrs after application
Thrips [8] = conditions: Thrips on cotton leaves; dose 1 ml/gm/lit.; 10 insects/treatment; 48 hrs after application
Aphid [9] = conditions: Aphids on cotton plants, green house; dose 1 ml/gm/lit.; 10 insects/plant, 10 plants/treatment; 48 hrs
Mite [10] = conditions: mite on okra plants, green house, dose 1 ml/gm/lit. spray
Mealy Bug [11] = conditions: mealy bug on cotton plants, green house, dose 1 ml/gm/lit. spray
Helicoverpa armigera [12] = conditions: Helicoverpa armigera 3rd instar on chickpea plants, dose 1 ml/gm/lit. spray
Spodoptera litura [13] = conditions: Spodoptera litura 3rd instar on cabbage plants, dose 1 ml/gm/lit. spray
Thrips [14] = conditions: thrips on cotton plants, greenhouse, dose 1 ml/gm/lit. spray
[15] = cited from earlier work
Spodoptera litura [16] = assay: whole plant or invertebrate; conditions: 72 h
Thrips [17] = assay: whole plant or invertebrate; conditions: in Gossypium hirsutum, 48 h
Aphid [18] = assay: whole plant or invertebrate; conditions: 48 h
[19] = 10 insects/treatment, 4 replications
[20] = 48 hrs, corrected for water control
[21] = 72 hrs, corrected for water control
[22] = Table 13, descriptive, no test described
[23] = read-out: % Corrected Mortality at 48 Hrs.
[24] = read-out: % Mortality at 48 Hrs.

SMILES: O=c1oc2c(O)c(O)cc3c(=O)oc4c(O)c(O)cc1c4c23 [Ellagic acid]
- Mean colony Diameter (mm) (Alternaria alternata [1]): 44.00 mm
- inhibition of growth at 1 mL or g/L (Alternaria alternata [1]; vs untreated control, read-out: % Inhibition of growth): 50%
- % Disease reduction over Control (Alternaria alternata [2]): 66.12%
- Plant Height 5th Day (tomato seedlings; 5th day after application): 7.09 cm
- Stem Girth 5th Day (tomato seedlings; 5th day after application): 1.54 mm
- Plant Height 10th Day (tomato seedlings; 10th day after application): 8.18 cm
- Stem Girth 10th Day (tomato seedlings; 10th day after application): 2.19 mm
- Plant Height % Increase over pre on 10th Day (tomato seedlings; 10th day): 36.11%
- Stem Girth % Increase over pre on 10th Day (tomato seedlings; 10th day): 62.87%
- CCI 5th Day (tomato seedlings; 5th day after application): 13.39
- CCI % Increase over pre on 10th Day (tomato seedlings; 10th day): 28.96%
- Root Length (cm) 10th Day (tomato seedlings; 10th day): 4.48 cm
- CCI 10th Day (tomato seedlings; 10th day after application): 14.56
- Root Length % Increase over control (tomato seedlings; 10th day, vs water control): 34.64%
- CCI 5th Day (chili seedlings; 5th day after application): 16.35
- Plant Height (cm) 5th Day (chili seedlings; 5th day after application): 5.77 cm
- CCI % Increase over pre on 10th Day (chili seedlings; 10th day): 67.49%
- Plant Height % Increase over pre on 10th Day (chili seedlings; 10th day): 62.60%
- Root Lenght (cm) 10th Day (chili seedlings; 10th day): 3.92 cm
- Stem Girth % Increase over pre on 10th Day (chili seedlings; 10th day): 51.20%
- CCI 10th Day (chili seedlings; 10th day after application): 16.95
- Plant Height (cm) 10th Day (chili seedlings; 10th day after application): 6 cm
- Root Lenght % Increase over control (chili seedlings; 10th day, vs water control): 43.41%
- Total No. of dead insect at 48 Hrs. (Aphid [3]; 10 insects/treatment, 4 replications, cotton leaves): 7.25
- % Corrected Mortality at 48 Hrs. (Aphid [3]; 48 hrs): 68.57%
- % Mortality at 48 Hrs. (Aphid [3]; 48 hrs): 72.50%
- Total No. of dead insect at 48 Hrs. (Mite [4]; 10 insects/treatment, 4 replications, okra leaves): 5.00
- % Corrected Mortality at 48 Hrs. (Mite [4]; 48 hrs): 45.95%
- Total No. of dead insect at 48 Hrs. (Mealy Bug [5]; [19]): 6.00
- % Mortality at 48 Hrs. (Mealy Bug [5]): 60.00%
- % Corrected Mortality at 48 Hrs. (Mealy Bug [5]; corrected for water control): 57.89%
- Total No. of dead insect at 72 Hrs. (Helicoverpa armigera [6]; [19]): 7.25
- % Mortality at 72 Hrs. (Helicoverpa armigera [6]): 72.50%
- % Corrected Mortality at 72 Hrs. (Helicoverpa armigera [6]; corrected for water control): 72.50%
- Total No. of dead insect at 72 Hrs. (Spodoptera litura [7]): 6.00
- Total No. of dead insect at 48 Hrs. (Thrips [8]): 3.50
- Total No. of dead insect at 48 Hrs. (Aphid [9]): 75.00
- % Mortality at 48 Hrs. (Mite [10]; 48 hrs after application): 52.50%
- Total No. of dead insect at 48 Hrs. (Mite [10]; 48 hrs after application): 52.50
- % Corrected Mortality at 48 Hrs. (Mite [10]; [20]): 50.00%
- % Mortality at 48 Hrs. (Mealy Bug [11]; 48 hrs after application): 57.50%
- Total No. of dead insect at 48 Hrs. (Mealy Bug [11]; 48 hrs after application): 57.50
- % Corrected Mortality at 48 Hrs. (Mealy Bug [11]; [20]): 52.78%
- % Mortality at 72 Hrs. (Helicoverpa armigera [12]; 72 hrs after application): 70.00%
- % Corrected Mortality at 72 Hrs. (Helicoverpa armigera [12]; [21]): 70.00%
- % Mortality at 72 Hrs. (Spodoptera litura [13]; 72 hrs after application): 55.00%
- % Corrected Mortality at 72 Hrs. (Spodoptera litura [13]; [21]): 52.63%
- % Mortality at 48 Hrs. (Thrips [14]; 48 hrs after application): 32.50%
- Total No. of dead insect at 48 Hrs. (Thrips [14]; 48 hrs after application): 32.50
- % Corrected Mortality at 48 Hrs. (Thrips [14]; [20]): 25.00%
- Acaricidal Activity - Mode of action [15, 22]: Shows acaricidal activities
- Antifungal Activity - Mode of action [15, 22]: Fungicidal activities
- Antioxidant Activity - Mode of action [15, 22]: Exhibit antioxidant
- Bactericidal Activity - Mode of action [15, 22]: Exhibits bactericidal
- Insecticidal Activities - Mode of action [15, 22]: Inhibit the growth, food
- Phytotonic Effect ([15]; Table 13, effect on plants, descriptive): Reduces plant
- mortality at 1 mL or g/L (Spodoptera litura [16]; read-out: % Corrected Mortality at 72 Hrs.): 57.9%
- mortality at 1 mL or g/L (Spodoptera litura [16]; read-out: % Mortality at 72 Hrs.): 60%
- mortality at 1 mL or g/L (Thrips [17]; [23]): 25.7%
- mortality at 1 mL or g/L (Thrips [17]; [24]): 35%
- mortality at 1 mL or g/L (Aphid [18]; [23]): 70.6%
- mortality at 1 mL or g/L (Aphid [18]; [24]): 75%
